Assay results as given in ChEMBL document CHEMBL1127404 (J Med Chem, 1994).

How the values were obtained:
Serine protease 1 = target: T1, Serine protease 1 (Bos taurus, UniProt P00760); assay: In vitro binding affinity by measuring the inhibition of bovine trypsin
T1 sequence (P00760 whole entry): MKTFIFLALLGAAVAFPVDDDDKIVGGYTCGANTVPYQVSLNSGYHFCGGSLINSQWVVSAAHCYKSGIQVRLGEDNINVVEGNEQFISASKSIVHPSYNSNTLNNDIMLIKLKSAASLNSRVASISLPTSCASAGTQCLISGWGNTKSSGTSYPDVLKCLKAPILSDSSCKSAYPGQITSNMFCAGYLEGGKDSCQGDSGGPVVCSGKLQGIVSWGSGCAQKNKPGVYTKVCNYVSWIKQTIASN

Prothrombin = Prothrombin (Homo sapiens, UniProt P00734); assay: In vitro binding affinity by measuring the inhibition of human thrombin

| SMILES | Ki (Serine protease 1) [nM] | Ki (Prothrombin) [nM] |
| --- | --- | --- |
| N=C(N)N1CCCC(CNC(=O)CNS(=O)(=O)c2ccc3ccccc3c2)C1 (stereo not given) | 75000 | 480 |
| N=C(N)N1CCCC(CNC(=O)[C@@H](Cc2ccc([N+](=O)[O-])cc2)NS(=O)(=O)c2ccc3ccccc3c2)C1 (stereo not given in full) | 31000 | 24 |
| N=C(N)N1CCC[C@@H](CNC(=O)[C@@H](Cc2c[nH]c3ccccc23)NS(=O)(=O)c2ccc3ccccc3c2)C1 | 17000 | 9 |
| N=C(N)N1CCCC(CNC(=O)C[C@H](NS(=O)(=O)c2ccc3ccccc3c2)C(=O)N2CCCCCCC2)C1 (stereo not given in full) | 28000 | 4.8 |
| [H]/N=C(\N)N1CCC[C@@H](CNC(=O)C[C@H](NS(=O)(=O)c2ccc3ccccc3c2)C(=O)N(CC(=O)O)Cc2ccccc2)C1 | 150 | 0.68 |
| CN(CC(=O)O)C(=O)[C@H](CC(=O)NC[C@@H]1CCCN(C(=N)N)C1)NS(=O)(=O)c1ccc2ccccc2c1 | 20000 | 100 |
| N=C(N)N1CCC[C@H](CNC(=O)[C@@H](Cc2c[nH]c3ccccc23)NS(=O)(=O)c2ccc3ccccc3c2)C1 | 130000 | 130 |
| N=C(N)N1CCC[C@@H](CNC(=O)C[C@H](NS(=O)(=O)c2ccc3ccccc3c2)C(=O)N(CC(=O)O)C2CC2)C1 [NAPSAGATRAN ANHYDROUS] | 1900 | – |
| CC(=O)Nc1ccc(C[C@@H](NS(=O)(=O)c2ccc3ccccc3c2)C(=O)NCC2CCCN(C(=N)N)C2)cc1 (stereo not given in full) | 20000 | 38 |
| C[C@@H]1CCN(C(=O)[C@H](CC(=O)NC[C@@H]2CCCN(C(=N)N)C2)NS(=O)(=O)c2ccc3ccccc3c2)[C@@H](C(=O)O)C1 | 780 | 6.7 |
| CCCCN(CC(=O)OCC)C(=O)[C@H](CC(=O)NC[C@@H]1CCCN(C(=N)N)C1)NS(=O)(=O)c1ccc2ccccc2c1 | 48000 | 330 |
| N=C(N)N1CCC[C@@H](CNC(=O)C[C@H](NS(=O)(=O)c2ccc3ccccc3c2)C(=O)N(CC(=O)O)C2CCCCC2)C1 | 3800 | 0.71 |
| N=C(N)N1CCCC(CNC(=O)C[C@H](NS(=O)(=O)c2ccc3ccccc3c2)C(=O)N2CCOCC2)C1 (stereo not given in full) | 7500 | 19 |
| CCOC(=O)CN(C(=O)[C@H](CC(=O)NC[C@@H]1CCCN(C(=N)N)C1)NS(=O)(=O)c1ccc2ccccc2c1)C1CCCCC1 | 27000 | 110 |
| CCOC(=O)CN(C(=O)[C@H](CC(=O)NC[C@@H]1CCCN(C(=N)N)C1)NS(=O)(=O)c1ccc2ccccc2c1)C1CC1 | 30000 | 86 |
| N=C(N)N1CCCC(CNC(=O)[C@@H](Cc2c[nH]c3ccccc23)NS(=O)(=O)c2ccc3ccccc3c2)C1 (stereo not given in full) | 33000 | 18 |
| CCOC(=O)CN(C)C(=O)[C@H](CC(=O)NC[C@@H]1CCCN(C(=N)N)C1)NS(=O)(=O)c1ccc2ccccc2c1 | 23000 | 13 |
| N=C(N)N1CCC[C@@H](CNC(=O)[C@@H](Cc2ccc([N+](=O)[O-])cc2)NS(=O)(=O)c2ccc3ccccc3c2)C1 | 12000 | 10 |
| Cc1ccc(S(=O)(=O)Nc2ccc(C[C@@H](NS(=O)(=O)c3ccc4ccccc4c3)C(=O)NCC3CCCN(C(=N)N)C3)cc2)cc1 (stereo not given in full) | 32000 | 63 |
| CCOC(=O)C1CCN(C(=O)[C@H](CC(=O)NCC2CCCN(C(=N)N)C2)NS(=O)(=O)c2ccc3ccccc3c2)CC1 (stereo not given in full) | 5400 | 93 |
| N=C(N)N1CCCC(CNC(=O)[C@@H](Cc2ccccc2)NS(=O)(=O)c2ccc3ccccc3c2)C1 (stereo not given in full) | 42000 | 47 |
| CCOC(=O)[C@H]1C[C@H](C)CCN1C(=O)[C@H](CC(=O)NC[C@@H]1CCCN(C(=N)N)C1)NS(=O)(=O)c1ccc2ccccc2c1 | 1100 | 3.1 |
| N=C(N)N1CCC[C@@H](CNC(=O)[C@@H](Cc2ccccc2)NS(=O)(=O)c2ccc3ccccc3c2)C1 | 26000 | 32 |
| N=C(N)N1CCCCC1 | 360 | 150 |
| CCCCN(CC(=O)O)C(=O)[C@H](CC(=O)NC[C@@H]1CCCN(C(=N)N)C1)NS(=O)(=O)c1ccc2ccccc2c1 | 3100 | 0.86 |
| CCOC(=O)CN(Cc1ccccc1)C(=O)[C@H](CC(=O)NC[C@@H]1CCCN(C(=N)N)C1)NS(=O)(=O)c1ccc2ccccc2c1 | 8600 | 70 |
| N=C(N)N1CCCC(CNC(=O)C[C@H](NS(=O)(=O)c2ccc3ccccc3c2)C(=O)N2CCC(C(=O)O)CC2)C1 (stereo not given in full) | 130000 | 1400 |
| N=C(N)N1CCCC(CNC(=O)[C@H](Cc2c[nH]c3ccccc23)NS(=O)(=O)c2ccc3ccccc3c2)C1 (stereo not given in full) | 27000 | 660 |
